Structures can show the parent of a compound that is named as a salt.

Data on 25 compounds can be found in US10604489B2, “Compounds for the treatment of pain” (priority 2018, dated 2020).

One assay has as its target human μ opioid receptor (Homo sapiens (Human), UniProt P35372). As to the kind of experiment: Functional activity ([35S]GTPγS binding). The class given is biochemical. To be noted: [35S]GTPγS 0.080 nM, CHO cell membranes, 60 min at 30° C., filtration. On the procedure: The [^35S]GTPγS assay measures the functional properties of a compound by quantifying the level of G-protein activation following agonist binding in studies using stably transfected cells, and is considered to be a measure of the efficacy of a compound. Membranes from CHO (Chinese Hamster Ovary) cells that stably expressed one type of the cloned human opioid receptor human were used in the experiments. In a final volume of 0.5 mL, 12 different concentrations of each test compound were incubated with 7.5 μg of CHO cell membranes that stably expressed the human p opioid receptor. The assay buffer consisted of 50 mM Tris-HCl, pH 7.4, 3 mM MgCl2, 0.2 mM EGTA, 3 μM GDP, and 100 mM NaCl. The final concentration of [35S]GTPγS was 0.080 nM. Nonspecific binding was measured by inclusion of 10 μM GTPγS. Binding was initiated by the addition of the membranes. After an incubation of 60 min at 30° C., the samples were filtered through Schleicher & Schuell No. 32 glass fiber filters. The filters were washed three times with cold 50 mM Tris-HCl, pH 7.5, and were counted in 2 mL of Ecoscint scintillation fluid.

The target of the next assay is μ-receptor (Homo sapiens (Human), UniProt P35372). As to the kind of experiment: Receptor binding, competitive displacement of [3H]DAMGO. As to conditions: 0.25 nM [3H]DAMGO, CHO cell membrane protein, 60 min at 25° C. On the procedure: The Ki (binding affinity) for μ-receptor was determined with a previously described method using a competitive displacement assay (Neumeyer et al., J. Med. Chem., v. 46, p. 5162-5170, 2003). Membrane protein from CHO (Chinese Hamster Ovarian) cells that stably expressed one type of the cloned human opioid receptor were incubated with 12 different concentrations of the compound in the presence of 0.25 nM [3H]DAMGO, 0.2 nM [3H]naltrindole or 1 nM [3H]U69,593 in a final volume of 1 mL of 50 mM Tris-HCl, pH 7.5 at 25° C. Incubation times of 60 min were used for [3H]DAMGO and [3H]U69,593. Because of a slower association of [3H]naltrindole with the receptor, a 3 h incubation was used with this radioligand. Samples incubated with [3H]naltrindole also contained 10 mM MgCl2 and 0.5 mM phenylmethylsulfonyl fluoride. Nonspecific binding was measured by inclusion of 10 μM naloxone. The binding was terminated by filtering the samples through Schleicher & Schuell No. 32 glass fiber filters using a Brandel 48-well cell harvester. The filters were subsequently washed three times with 3 mL of cold 50 mM Tris-HCl, pH 7.5, and were counted in 2 mL Ecoscint A scintillation fluid. For [3H]naltrindole and [3H]U69,593 binding, the filters were soaked in 0.1% polyethylenimine for at least 60 min before use. IC50 values will be calculated by least squares fit to a logarithm-probit analysis. Ki values of unlabelled compounds were calculated from the equation Ki=(IC50)/1+S where S=(concentration of radioligand)/(Kd of radioligand) (Cheng and Prusoff, Biochemical Pharmacology, v. 22, p. 3099-3108, 1973).

In turn, `COC1(c2ccnc(C(N)=O)c2)C2CCCC1CN([C@H]1CC[C@@H]1c1ccccc1)C2` (stereo partly drawn) [Compound 117, 4-((1R,5S,9s)-9-methoxy-3-((1S,2R)-2-phenylcyclobutyl)-3-azabicyclo[3.3.1]nonan-9-yl)picolinamide hydrochloride] came in with a half-maximal effective concentration (EC50) at human μ opioid receptor of 10 to 75 nM. Also, the inhibition constant (Ki) at μ-receptor was in the range of 1 to 5 nM.
The corresponding values for `COC1(c2ccnc(C(N)=O)c2)C2CCCC1CN(C1CCOC1)C2` [Compound 74, 4-((1R,5S,9r)-9-methoxy-3-(tetrahydrofuran-3-yl)-3-azabicyclo[3.3.1]nonan-9-yl)picolinamide hydrochloride] are 10 to 75 nM and 1 to 5 nM.
At human μ opioid receptor, `COC1(c2cccc(C(N)=O)c2O)C2CCCC1CN(C)C2` [Compound 49, 2-hydroxy-3-((1R,5S,9r)-9-methoxy-3-methyl-3-azabicyclo[3.3.1]nonan-9-yl)benzamide hydrochloride] displayed an EC50 of less than 10 nM. At μ-receptor, this compound registered a Ki of less than 1 nM.
On to `COC1(c2ccnc(C(N)=O)c2)C2CCCC1CN(C[C@H]1C[C@@H]3C[C@@H]3C1)C2` (stereo partly drawn) [Compound 102, 4-((1R,5S,9R)-3-((1R,3r,5S)-bicyclo[3.1.0]hexan-3-ylmethyl)-9-methoxy-3-azabicyclo[3.3.1]nonan-9-yl)picolinamide hydrochloride], for which, at human μ opioid receptor, the EC50 lay in the range of 10 to 75 nM. This compound also showed an inhibitory constant (Ki) at μ-receptor of less than 1 nM.
The corresponding values for `COC1(c2cccc(C(N)=O)c2)C2CCCC1CN(C1CC3CCC(C1)O3)C2` (single isomer, unassigned) [Compound 14, hydrochloride] are greater than 75 nM and 1 to 5 nM.
For `COC1(c2ccnc(C(N)=O)c2)C2CCCC1CN(C1CCCOC1)C2` [Compound 111, 4-((1R,5S,9r)-9-methoxy-3-(tetrahydro-2H-pyran-3-yl)-3-azabicyclo[3.3.1]nonan-9-yl)picolinamide hydrochloride], in that order: greater than 75 nM and greater than 5 nM.
Consider `COC1(c2ccnc(C(N)=O)c2)C2CCCC1CN([C@H]1C[C@@H](F)C1)C2` (stereo partly drawn) [Compound 2, 4-((1R,5S,9R)-3-((1s,3S)-3-fluorocyclobutyl)-9-methoxy-3-azabicyclo[3.3.1]nonan-9-yl)picolinamide hydrochloride], for which, on human μ opioid receptor, the EC50 is 10 to 75 nM. This compound displayed an inhibitory constant (Ki) on μ-receptor of less than 1 nM.
The corresponding values for `COC1(c2cccc(C(N)=O)c2)C2CCCC1CN(CCC(F)(F)F)C2` [Compound 34, 3-((1R,5S,9r)-9-methoxy-3-(3,3,3-trifluoropropyl)-3-azabicyclo[3.3.1]nonan-9-yl)benzamide hydrochloride] are less than 10 nM and less than 1 nM.
For `COC1(c2cccc(C(N)=O)c2)C2CCCC1CN(C1COC1)C2` [Compound 50, 3-((1R,5S,9r)-9-methoxy-3-(oxetan-3-yl)-3-azabicyclo[3.3.1]nonan-9-yl)benzamide (S)-2-hydroxysuccinate], in that order: 10 to 75 nM and 1 to 5 nM.
On human μ opioid receptor, `CCC[C@H](C)N1CC2CCCC(C1)C2(OC)c1ccnc(C(N)=O)c1` (single isomer, unassigned) [Compound 134, hydrochloride] registered an EC50 of 10 to 75 nM. In addition, the Ki on μ-receptor is less than 1 nM.
The compound `CCN1CC2CCCC(C1)C2(OC)c1ccnc(C(N)=O)c1` [Compound 66, 4-((1R,5S,9r)-3-ethyl-9-methoxy-3-azabicyclo[3.3.1]nonan-9-yl)picolinamide hydrochloride] registered a half-maximal effective concentration (EC50) on human μ opioid receptor of 10 to 75 nM. Besides, the Ki at μ-receptor fell in the range of 1 to 5 nM.
The compound `COC1(c2ccnc(C(N)=O)c2)C2CCCC1CN(Cc1ncc[nH]1)C2` [Compound 99, 4-((1R,5S,9r)-3-((1H-imidazol-2-yl)methyl)-9-methoxy-3-azabicyclo[3.3.1]nonan-9-yl)picolinamide hydrochloride] gave an EC50 at human μ opioid receptor of 10 to 75 nM. Further, the Ki at μ-receptor was 1 to 5 nM.
In turn, `COC1(c2ccnc(C(N)=O)c2)C2CCCC1CN(CCC1CC1)C2` [Compound 86, 4-((1R,5S,9r)-3-(2-cyclopropylethyl)-9-methoxy-3-azabicyclo[3.3.1]nonan-9-yl)picolinamide hydrochloride] registered a 50% effective concentration (EC50) on human μ opioid receptor of 10 to 75 nM. At μ-receptor, this compound had a Ki of 1 to 5 nM.
For `COC1(c2cccc(C(N)=O)c2)C2CCCC1CN([C@H]1C[C@@H]3[C@H](C1)C3(F)F)C2` (stereo partly drawn) [Compound 17, 3-((1R,5S,9R)-3-((1R,3r,5S)-6,6-difluorobicyclo[3.1.0]hexan-3-yl)-9-methoxy-3-azabicyclo[3.3.1]nonan-9-yl)benzamide hydrochloride], in that order: less than 10 nM and less than 1 nM.
On human μ opioid receptor, `COC1(c2ccnc(C(N)=O)c2)C2CCCC1CN(C1CC(c3ccccc3)C1)C2` [Compound 87, 4-((1R,5S,9R)-9-methoxy-3-((1r,3R)-3-phenylcyclobutyl)-3-azabicyclo[3.3.1]nonan-9-yl)picolinamide hydrochloride] came in with an EC50 of less than 10 nM. The Ki on μ-receptor was less than 1 nM.
Consider `COC1(c2ccnc(C(N)=O)c2F)C2CCCC1CN(C)C2` [Compound 53, 3-fluoro-4-((1R,5S,9r)-9-methoxy-3-methyl-3-azabicyclo[3.3.1]nonan-9-yl)picolinamide hydrochloride], for which the concentration for a half-maximal effect (EC50) on human μ opioid receptor was greater than 75 nM. The same compound gave an inhibition constant (Ki) on μ-receptor of 1 to 5 nM.
Compound `COC1(c2ccnc(C(N)=O)c2)C2CCCC1CN(Cc1cccnc1)C2` [Compound 68, 4-((1R,5S,9r)-9-methoxy-3-(pyridin-3-ylmethyl)-3-azabicyclo[3.3.1]nonan-9-yl)picolinamide dihydrochloride] yielded an EC50 at human μ opioid receptor of 10 to 75 nM. On μ-receptor, this compound returned a Ki of 1 to 5 nM.
For `COC1(c2ccnc(C(N)=O)c2)C2CCCC1CN(C(C)(C)C)C2` [Compound 107, 4-((1R,5S,9r)-3-(tert-butyl)-9-methoxy-3-azabicyclo[3.3.1]nonan-9-yl)picolinamide hydrochloride], on human μ opioid receptor, the EC50 was greater than 75 nM. Further, the inhibition constant (Ki) on μ-receptor fell in the range of 1 to 5 nM.
In the case of `COC1(c2ccnc(C(N)=O)c2)C2CCCC1CN([C@@H]1CCOC1)C2` (stereo partly drawn) [Compound 78, 4-((1R,5S,9s)-9-methoxy-3-((S)-tetrahydrofuran-3-yl)-3-azabicyclo[3.3.1]nonan-9-yl)picolinamide hydrochloride], the EC50 at human μ opioid receptor fell in the range of 10 to 75 nM. The same compound displayed a Ki at μ-receptor of 1 to 5 nM.
The corresponding values for `COC1(c2cccc(C(N)=O)c2)C2CCCC1CN(C1CC3(CCOCC3)C1)C2` [Compound 6, 3-((1R,5S,9r)-9-methoxy-3-(7-oxaspiro[3.5]nonan-2-yl)-3-azabicyclo[3.3.1]nonan-9-yl)benzamide hydrochloride] are less than 10 nM and less than 1 nM.
In the case of `COC1(c2ccnc(C(N)=O)c2)C2CCCC1CN(Cc1ccccn1)C2` [Compound 67, 4-((1R,5S,9r)-9-methoxy-3-(pyridin-2-ylmethyl)-3-azabicyclo[3.3.1]nonan-9-yl)picolinamide dihydrochloride], at human μ opioid receptor, the 50% effective concentration (EC50) was in the range of 10 to 75 nM. For the same compound, the inhibition constant Ki at μ-receptor lay in the range of 1 to 5 nM.
For `COC1(c2cccc(C(N)=O)c2)C2CCCC1CN(Cc1cnn[nH]1)C2` [Compound 75, 3-((1R,5S,9r)-3-((1H-1,2,3-triazol-5-yl)methyl)-9-methoxy-3-azabicyclo[3.3.1]nonan-9-yl)benzamide hydrochloride], in that order: less than 10 nM and less than 1 nM.
For `COC1(c2ccnc(C(N)=O)c2)C2CCCC1CN([C@H]1CC[C@@H]1C)C2` (single isomer, unassigned) [Compound 144, hydrochloride], in that order: 10 to 75 nM and less than 1 nM.
Compound `COCCN1CC2CCCC(C1)C2(OC)c1ccnc(C(N)=O)c1` [Compound 83, 4-((1R,5S,9r)-9-methoxy-3-(2-methoxyethyl)-3-azabicyclo[3.3.1]nonan-9-yl)picolinamide hydrochloride] yielded a 50% effective concentration (EC50) on human μ opioid receptor of 10 to 75 nM. At μ-receptor, the inhibitory constant (Ki) lay in the range of 1 to 5 nM.
`COC1(c2ccnc(C(N)=O)c2)C2CCCC1CN([C@H]1C[C@@H](OC)C1)C2` (stereo partly drawn) [Compound 139, 4-((1R,5S,9R)-9-methoxy-3-((1r,3R)-3-methoxycyclobutyl)-3-azabicyclo[3.3.1]nonan-9-yl)picolinamide hydrochloride] gave a concentration giving a half-maximal response (EC50) on human μ opioid receptor of 10 to 75 nM. The inhibition constant (Ki) at μ-receptor is less than 1 nM.
